Measured values from ChEMBL document CHEMBL1240307, “A functional genomics approach to the mode of action of apratoxin A” (Nat Chem Biol, 2006).

Tests used:
T47D = experiment: Cytotoxicity against human T47D cells by sulforhodamine B assay; format: functional
SNB-19 = experiment: Cytotoxicity against human SNB19 cells by sulforhodamine B assay; format: functional
HT-29 [1] = experiment: Antitumor activity against human HT-29 cells assessed as upregulation of KCNK10 mRNA expression at 10 nM after 12 hrs relative to control; format: functional
HT-29 [2] = experiment: Antitumor activity against human HT-29 cells assessed as upregulation of KCNK10 mRNA expression at 2 nM after 3 hrs relative to control; format: functional
HOP-62 = experiment: Cytotoxicity against human HOP62 cells by sulforhodamine B assay; format: functional
K562 = experiment: Cytotoxicity against human K562 cells by sulforhodamine B assay; format: functional
HT-29 [3] = experiment: Antitumor activity against human HT-29 cells assessed as down-regulation of CDC25A mRNA expression at 10 nM after 12 hrs relative to control; format: functional
U2OS [4] = experiment: Antiproliferative activity against human U2OS cells expressing constitutively active Stat3 mutant after 48 hrs by CMV-GFP reporter assay method; format: functional, cell-based
HT-29 [5] = experiment: Antitumor activity against human HT-29 cells assessed as upregulation of HSPA1A mRNA expression at 2 nM after 12 hrs relative to control; format: functional
HT-29 [6] = experiment: Antitumor activity against human HT-29 cells assessed as down-regulation of CCNE2 mRNA expression at 10 nM after 6 hrs relative to control; format: functional
HT-29 [7] = experiment: Antitumor activity against human HT-29 cells assessed as down-regulation of CDC25A mRNA expression at 10 nM after 3 hrs relative to control; format: functional
SN12C = experiment: Cytotoxicity against human SN12C cells by sulforhodamine B assay; format: functional
HT-29 [8] = experiment: Antitumor activity against human HT-29 cells assessed as upregulation of DDIT4 mRNA expression at 2 nM after 3 hrs relative to control; format: functional
HT-29 [9] = experiment: Antitumor activity against human HT-29 cells assessed as upregulation of KCNK10 mRNA expression at 10 nM after 3 hrs relative to control; format: functional
UO-31 = experiment: Cytotoxicity against human UO31 cells by sulforhodamine B assay; format: functional
U2OS [10] = experiment: Cell cycle arrest in human U2OS cells assessed as accumulation at S phase at 5 nM after 48 hrs by FACS analysis (reference value: 37.3%); format: functional
HT-29 [11] = experiment: Antitumor activity against human HT-29 cells assessed as upregulation of MGC4504 mRNA expression at 10 nM after 6 hrs relative to control; format: functional
[12] = Cytotoxicity against activated human CD4+ T cells assessed as cell viability after 5 days by fluorescence detection method; format: cell-based; details: 120 h
DU-145 = experiment: Cytotoxicity against human DU145 cells by sulforhodamine B assay; format: functional
NCI-H226 = experiment: Cytotoxicity against human NCI-H226 cells by sulforhodamine B assay; format: functional
HT-29 [13] = experiment: Antitumor activity against human HT-29 cells assessed as down-regulation of CCNE2 mRNA expression at 2 nM after 12 hrs relative to control; format: functional
HT-29 [14] = experiment: Antitumor activity against human HT-29 cells assessed as down-regulation of GTSE1 mRNA expression at 2 nM after 12 hrs relative to control; format: functional
KM12 = experiment: Cytotoxicity against human KM12 cells by sulforhodamine B assay; format: functional
OVCAR-8 = experiment: Cytotoxicity against human OVCAR8 cells by sulforhodamine B assay; format: functional
MDA-MB-435 = experiment: Cytotoxicity against human MDA-MB-435 cells by sulforhodamine B assay; format: functional
[15] = Cytotoxicity against human […] cells by sulforhodamine B assay; format: functional
HT-29 [16] = experiment: Antitumor activity against human HT-29 cells assessed as down-regulation of RAB11B mRNA expression at 2 nM after 12 hrs relative to control; format: functional
HT-29 [17] = experiment: Antitumor activity against human HT-29 cells assessed as down-regulation of TAL1 mRNA expression at 10 nM after 12 hrs relative to control; format: functional
HT-29 [18] = experiment: Antitumor activity against human HT-29 cells assessed as down-regulation of RAB11B mRNA expression at 10 nM after 6 hrs relative to control; format: functional
SK-OV-3 = experiment: Cytotoxicity against human SKOV3 cells by sulforhodamine B assay; format: functional
SK-MEL-5 = experiment: Cytotoxicity against human SK-MEL-5 cells by sulforhodamine B assay; format: functional
IGROV-1 = experiment: Cytotoxicity against human IGROV1 cells by sulforhodamine B assay; format: functional
HT-29 [19] = experiment: Antitumor activity against human HT-29 cells assessed as down-regulation of GTSE1 mRNA expression at 10 nM after 12 hrs relative to control; format: functional
HT-29 [20] = experiment: Antitumor activity against human HT-29 cells assessed as down-regulation of CDC25A mRNA expression at 2 nM after 6 hrs relative to control; format: functional
NCI/ADR-RES = experiment: Cytotoxicity against human NCI/ADR-RES cells by sulforhodamine B assay; format: functional
HT-29 [21] = experiment: Antitumor activity against human HT-29 cells assessed as upregulation of HSPA1A mRNA expression at 2 nM after 3 hrs relative to control; format: functional
MOLT-4 = experiment: Cytotoxicity against human MOLT4 cells by sulforhodamine B assay; format: functional
SF-295 = experiment: Cytotoxicity against human SF295 cells by sulforhodamine B assay; format: functional
HT-29 [22] = experiment: Antitumor activity against human HT-29 cells assessed as down-regulation of GTSE1 mRNA expression at 2 nM after 6 hrs relative to control; format: functional
SK-MEL-28 = experiment: Cytotoxicity against human SK-MEL-28 cells by sulforhodamine B assay; format: functional
HT-29 [23] = experiment: Antitumor activity against human HT-29 cells assessed as upregulation of DDIT4 mRNA expression at 2 nM after 12 hrs relative to control; format: functional
HT-29 [24] = experiment: Antitumor activity against human HT-29 cells assessed as down-regulation of CCNE2 mRNA expression at 10 nM after 3 hrs relative to control; format: functional
HT-29 [25] = experiment: Antitumor activity against human HT-29 cells assessed as upregulation of HSPA1A mRNA expression at 10 nM after 3 hrs relative to control; format: functional
HT-29 [26] = experiment: Antitumor activity against human HT-29 cells assessed as upregulation of KCNK10 mRNA expression at 2 nM after 6 hrs relative to control; format: functional
HT-29 [27] = experiment: Antitumor activity against human HT-29 cells assessed as down-regulation of CDC25A mRNA expression at 10 nM after 6 hrs relative to control; format: functional
SNB-75 = experiment: Cytotoxicity against human SNB75 cells by sulforhodamine B assay; format: functional
HT-29 [28] = experiment: Antitumor activity against human HT-29 cells assessed as down-regulation of GTSE1 mRNA expression at 10 nM after 6 hrs relative to control; format: functional
HT-29 [29] = experiment: Antitumor activity against human HT-29 cells assessed as down-regulation of RAB11B mRNA expression at 2 nM after 3 hrs relative to control; format: functional
NCI-H23 = experiment: Cytotoxicity against human NCI-H23 cells by sulforhodamine B assay; format: functional
Malme-3M = experiment: Cytotoxicity against human MALME-3M cells by sulforhodamine B assay; format: functional
[30] = read-out: LC50 (the source's name)

For CC[C@H](C)[C@H]1C(=O)N2CCC[C@H]2C(=O)O[C@H](C(C)(C)C)C[C@@H](C)C[C@H](O)[C@H](C)C2=N[C@@H](/C=C(\C)C(=O)N[C@@H](Cc3ccc(OC)cc3)C(=O)N(C)[C@@H](C)C(=O)N1C)CS2 [APRATOXIN A], the GI50 (T47D) was 3.63 nM, the GI50 (SNB-19) was 7 nM and the “fold change (FC)” value (HT-29 [1]) was “<=2”. The “fold change (FC)” value (HT-29 [2]) was “<=2”, the GI50 (HOP-62) was 7.68 nM and the GI50 (K562) was 14.8 nM. The “fold change (FC)” value (HT-29 [3]) was -2.79, the IC50 (U2OS [4]) was 50 nM and the “fold change (FC)” value (HT-29 [5]) was “<=2”. The “fold change (FC)” value (HT-29 [6]) was “<=2”, the “fold change (FC)” value (HT-29 [7]) was “<=2” and the GI50 (SN12C) was 3.94 nM. For the same compound, the “fold change (FC)” value (HT-29 [8]) was 2.49, the “fold change (FC)” value (HT-29 [9]) was 10.01 and the GI50 (UO-31) was 2.95 nM. For the same compound, the inhibition at 0.005 µM (U2OS [10]) was 5.5%, the “fold change (FC)” value (HT-29 [11]) was 10.46 and the IC50 [12] was 60 nM. The GI50 (DU-145) was 10.3 nM, the GI50 (NCI-H226) was 1.31 nM and the “fold change (FC)” value (HT-29 [13]) was “<=2”. The “fold change (FC)” value (HT-29 [14]) was “<=2”, the GI50 (KM12) was 3.52 nM and the GI50 (OVCAR-8) was 7.26 nM. It also gave a GI50 (MDA-MB-435) of 3.35 nM, a GI50 [15] of 1.28 nM and a CC50 [15, 30] of 69 nM. For the same compound, the “fold change (FC)” value (HT-29 [16]) was “<=2”, the “fold change (FC)” value (HT-29 [17]) was “<=2” and the “fold change (FC)” value (HT-29 [18]) was “<=2”. For the same compound, the GI50 (SK-OV-3) was 5.27 nM, the GI50 (SK-MEL-5) was 2.31 nM and the GI50 (IGROV-1) was 0.742 nM. For the same compound, the “fold change (FC)” value (HT-29 [19]) was -2.35, the “fold change (FC)” value (HT-29 [20]) was “<=2” and the GI50 (NCI/ADR-RES) was 15.3 nM. For the same compound, the “fold change (FC)” value (HT-29 [21]) was “<=2”, the GI50 (MOLT-4) was 48 nM and the GI50 (SF-295) was 1.26 nM. For the same compound, the CC50 (SF-295; [30]) was 70.3 nM, the “fold change (FC)” value (HT-29 [22]) was “<=2” and the GI50 (SK-MEL-28) was 5.49 nM. The “fold change (FC)” value (HT-29 [23]) was 3.78, the “fold change (FC)” value (HT-29 [24]) was “<=2” and the “fold change (FC)” value (HT-29 [25]) was 2.21. The “fold change (FC)” value (HT-29 [26]) was 6.35, the “fold change (FC)” value (HT-29 [27]) was “<=2” and the GI50 (SNB-75) was 1.96 nM. The “fold change (FC)” value (HT-29 [28]) was “<=2”, the “fold change (FC)” value (HT-29 [29]) was -3.68 and the GI50 (NCI-H23) was 8.23 nM. The GI50 (Malme-3M) was 4.77 nM.
